In ChEMBL document CHEMBL1201862, “PubChem BioAssay data set” (2004):
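A five-concentration, 48-hour dose response in 96-well plates underlies each endpoint, interpolated linearly between surrounding concentrations. Abbreviation: GI50, concentration required for 50% inhibition of growth.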 The source made the active and inactive calls. Rule as the data show it: active = GI50 up to about 1.1 µM and inactive = higher.

Columns and labels:
Assay in all cases: NCI tumour cell line growth inhibition, 48 h
786-0 = test system: 786-0
A498 = test system: A498
ACHN = test system: ACHN
BT-549 = test system: BT-549
CAKI-1 = test system: CAKI-1
DU-145 = test system: DU-145
EKVX = test system: EKVX
HCT-116 = test system: HCT-116
K562 = test system: K562
M14 = test system: M14
NCI-H226 = test system: NCI-H226
OVCAR-3 = test system: OVCAR-3
OVCAR-5 = test system: OVCAR-5
PC-3 = test system: PC-3
SF-539 = test system: SF-539
SK-MEL-28 = test system: SK-MEL-28
T47D = test system: T47D
UACC-257 = test system: UACC-257
UO-31 = test system: UO-31
SN12C = test system: SN12C

Measured: GI50

CC(C)C(C=O)C(O)(C(F)(F)F)C(F)(F)F (stereo unspecified)
inactive: 786-0 > 100 µM | A498 > 100 µM | ACHN > 100 µM | BT-549 > 100 µM | CAKI-1 > 100 µM | DU-145 > 100 µM | EKVX > 100 µM | HCT-116 > 100 µM | K562 > 100 µM | M14 > 100 µM | NCI-H226 > 100 µM | OVCAR-3 > 100 µM | OVCAR-5 > 100 µM | PC-3 > 100 µM | SF-539 > 100 µM | SK-MEL-28 > 100 µM | T47D > 100 µM | UACC-257 > 100 µM | UO-31 > 100 µM

CN(C)c1nc(N(C)C)nc(N(C)C23CC4CC(CC(C4)C2)C3)n1
inactive: 786-0 40.5 µM | A498 > 100 µM | ACHN 41.3 µM | BT-549 27.7 µM | CAKI-1 > 100 µM | DU-145 41.1 µM | EKVX 32 µM | HCT-116 20.5 µM | K562 49.3 µM | M14 33.3 µM | NCI-H226 32.6 µM | OVCAR-3 17.1 µM | OVCAR-5 21.4 µM | PC-3 24.5 µM | SF-539 31.8 µM | SK-MEL-28 46.5 µM | T47D 31.4 µM | UACC-257 34.3 µM | UO-31 61.1 µM

O=C1c2ccccc2/N=C(/c2cc3c(cc2Cl)Sc2nccn2S3(=O)=O)OS(=O)(=O)N1c1ccccc1
inactive: 786-0 38.4 µM | A498 > 100 µM | ACHN 25.8 µM | BT-549 17.8 µM | CAKI-1 35.7 µM | DU-145 37.4 µM | EKVX 30 µM | HCT-116 15.5 µM | K562 35.2 µM | M14 16.9 µM | NCI-H226 39.4 µM | OVCAR-3 37 µM | OVCAR-5 19.4 µM | PC-3 44.4 µM | SF-539 36.7 µM | SN12C 32.1 µM | T47D > 100 µM | UACC-257 64.7 µM | UO-31 26 µM

CNC(=O)CNC(=O)C(Cc1ccc(NC(=O)CCCCC(C)=O)cc1)NC(=O)C(CCC(=O)OCc1ccccc1)NC(=O)OC(C)(C)C (stereo unspecified)
inactive: 786-0 > 100 µM | A498 48.3 µM | ACHN > 100 µM | BT-549 > 100 µM | CAKI-1 > 100 µM | DU-145 > 100 µM | EKVX > 100 µM | HCT-116 > 100 µM | K562 > 100 µM | M14 > 100 µM | NCI-H226 > 100 µM | OVCAR-3 > 100 µM | OVCAR-5 > 100 µM | PC-3 > 100 µM | SF-539 > 100 µM | SK-MEL-28 > 100 µM | SN12C > 100 µM | T47D > 100 µM | UO-31 > 100 µM
